{
  "source": "paper PMC11856108",
  "about": "“Capsaicin (But Not Other Vanillins) Enhances Estrogen Binding to Its Receptor: Implications for Power Sports and Cancers” (Life, 2025)",
  "key": {"[1]": {"test": "Binding to steroid hormone by UV spectroscopy", "procedure": "UV spectroscopy in a crystal plate was used to investigate whether CAP has specificity for estrogen alone or whether it can bind to other naturally occurring hormones. To start, CAP was dissolved in a 1:1 solution of water to ethanol at 1 mg/mL ( 3.27×10^−3 M ) and then diluted by thirds eight times. Next, the hormones were dissolved in a 1:1 solution of water to ethanol at a 1/100 dilution. An amount of 50 μL of each CAP dilution was added to 3 wells of a crystal plate, with one well serving as the control, with another 50 μL of 1:1 water to ethanol added, and the other two serving as experimental duplicates, with 50 μL of the prepared hormone solution added. Then, two additional wells were prepared to serve as controls: one containing 100 μL of 1:1 water to ethanol and the other containing 50 μL of prepared hormone solution and 50 μL of 1:1 water to ethanol. Finally, the plate was incubated for 1 h and read in a Spectramax UV-VIS scanning spectrophotometer, spanning wavelengths from 190 to 400 nm. Data analysis involved the subtraction of observed absorbance values from expected absorbance values generated from the control wells ([CAP + 1:1 solution] + [hormone + 1:1 solution] − [1:1 solution]) and plotting them as a function of CAP concentration. Because the solvent (1:1 solution of water–ethanol) was used as a control and subtracted from all wells, the resulting data reflected only the absorbances of the solute compounds. Since each compound has a different lambda maximal absorbance, analysis of the resulting data required finding one common wavelength at which the additions and subtractions of the spectra could be carried out and at which the absorbance of each compound was maximized.\nExperiments were also performed to test whether the enhancement or antagonism observed in estradiol binding to the ESR1 might be due to vanilloid compounds binding directly to estradiol or to related steroidal hormones, perhaps protecting them from oxidation or forming a complex that prevented the estradiol binding to its receptor. No vanilloid compound bound to a measurable degree to estradiol or any other steroidal hormone tested."}, "insulin receptor (IR)": {"tested_on": "insulin receptor (IR)", "test": "Effect on INS binding to its receptor by ultraviolet spectroscopy", "details": "INS 1 µM with CAP 0.1-100 µM, or CAP 25 µM with INS 10 nM-10 µM", "procedure": "[17, 19, 20, 21, 22, 23]. […] Because CAP binds to INS, it was possible that it might antagonize INS binding to its receptor. […] Two types of ultraviolet spectroscopy experiments were performed. In one, INS (1 µM) and the IR were kept constant and the concentration of CAP increased from 0.1 µM to 100 µM. In the other, the CAP (25 µM) and IR were kept constant and the concentration of INS increased from 10 nM to 10 µM. In neither experiment was any significant change in the INS binding curve observed."}, "T1DM rats": {"tested_on": "T1DM rats", "design": "method as in PMID 28230360", "details": "cited from earlier work"}, "Human (male)": {"tested_on": "Human (male)", "design": "method as in PMID 8926537", "details": "cited from earlier work"}, "Human HepG2 cells": {"tested_on": "Human HepG2 cells", "design": "method as in PMID 25621172", "details": "cited from earlier work"}, "Human [2]": {"tested_on": "Human", "design": "method as in PMID 25621172", "details": "cited from earlier work"}, "Human [3]": {"tested_on": "Human", "design": "method as in PMID 30668390", "details": "cited from earlier work"}, "[4]": {"tested_on": "Human nasopharyngeal carcinoma", "design": "method as in PMID 28644386", "details": "cited from earlier work"}, "Human (NSCLC cells)": {"tested_on": "Human (NSCLC cells)", "design": "method as in PMID 24926985", "details": "cited from earlier work"}, "Rats (female)": {"tested_on": "Rats (female)", "design": "method as in PMID 29294454", "details": "cited from earlier work"}, "[5]": {"design": "method as in PMID 26247812", "details": "DPPC mem-brane model; cited from earlier work"}, "Mice [6]": {"tested_on": "Mice", "design": "method as in doi:10.32604/biocell.2023.028222", "details": "cited from earlier work"}, "Mice [7]": {"tested_on": "Mice", "design": "method as in PMID 38700794", "details": "cited from earlier work"}, "[8]": {"target": "insulin (human recombinant) (Homo sapiens, UniProt P01308)", "sequence (P01308 25-54 limits assumed)": "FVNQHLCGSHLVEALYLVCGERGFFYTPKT", "sequence (P01308 90-110 limits assumed)": "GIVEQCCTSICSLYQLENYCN", "test": "Binding to insulin by ultraviolet spectroscopy", "details": "UV spectroscopy"}, "[9]": {"target": "T1, Estrogen receptor alpha (ER alpha) recombinant protein (ESR1) (Homo sapiens, UniProt P03372)", "T1 sequence (P03372 1-595)": "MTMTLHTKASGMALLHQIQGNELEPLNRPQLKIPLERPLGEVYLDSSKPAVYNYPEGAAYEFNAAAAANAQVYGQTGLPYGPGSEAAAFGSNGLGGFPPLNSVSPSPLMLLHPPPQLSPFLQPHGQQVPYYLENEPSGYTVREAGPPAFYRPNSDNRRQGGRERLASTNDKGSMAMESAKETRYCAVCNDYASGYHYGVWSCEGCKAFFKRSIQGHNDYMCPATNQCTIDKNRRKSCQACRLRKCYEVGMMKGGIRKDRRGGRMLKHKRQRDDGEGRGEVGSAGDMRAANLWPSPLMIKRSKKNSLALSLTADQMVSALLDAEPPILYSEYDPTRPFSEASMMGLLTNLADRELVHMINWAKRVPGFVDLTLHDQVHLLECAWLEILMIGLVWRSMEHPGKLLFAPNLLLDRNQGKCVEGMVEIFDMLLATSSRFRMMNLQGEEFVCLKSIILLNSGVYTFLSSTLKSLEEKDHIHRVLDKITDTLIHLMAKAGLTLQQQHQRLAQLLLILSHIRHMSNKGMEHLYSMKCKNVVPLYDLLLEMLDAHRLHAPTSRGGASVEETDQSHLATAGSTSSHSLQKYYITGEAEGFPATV", "test": "Binding to the estrogen receptor by ultraviolet spectroscopy"}},
  "note": "“Also recorded” adds a separate entry of the source. Where two headings read alike, the source gives them in different places.",
  "data": [
    {"smiles": "COc1cc(CNC(=O)CCCC/C=C/C(C)C)ccc1O", "note": "[Capsaicin, trans-8-methyl-N-vanillyl-6-nonenamide]", "values": [
      {"measurement": "Binding (Kd) 4-Androstene-3,17-dione", "setting": "[1]", "result": "No binding"},
      {"measurement": "Binding (Kd) 5-Pregnan-3β-OL-2O-one", "setting": "[1]", "result": "No binding"},
      {"measurement": "Binding (Kd) Estradiol", "setting": "[1]", "result": "No binding"},
      {"measurement": "Binding (Kd) Estriol", "setting": "[1]", "result": "No binding"},
      {"measurement": "Binding (Kd) Progesterone", "setting": "[1]", "result": "No binding"},
      {"measurement": "Binding (Kd) Estradiol", "setting": "[1]; listed as capsaicin", "result": "did not bind directly to estradiol"},
      {"measurement": "effect on INS binding to its receptor", "setting": "insulin receptor (IR)", "result": "no observable effect"},
      {"measurement": "effect on INS binding to its receptor", "setting": "insulin receptor (IR); listed as CAP", "result": "does not, apparently, alter INS binding to its receptor; also recorded: did not significantly affect INS binding to its receptor"},
      {"measurement": "Capsaicin Upregulates", "setting": "T1DM rats", "result": ">Serum INS (CAP 6 mg/kg)"},
      {"measurement": "Downregulates or Inhibits", "setting": "T1DM rats", "result": ">Fasting blood glucose levels and serum level of glycosylated protein"},
      {"measurement": "Capsaicin Upregulates", "setting": "Human (male)", "result": ">Fat metabolism through neuroadrenergic effects of TRPV-1 activation"},
      {"measurement": "Cancer-Related Effects", "setting": "Human HepG2 cells", "result": ">Sensitizes human cancer cells to cytocidal effects of chemotherapeutic agents >Selectivity to kill cancer cells with minimal damage to normal cells"},
      {"measurement": "Downregulates or Inhibits", "setting": "Human HepG2 cells", "result": ">MDR-1 pathway → downregulates MDR-1 transcription (improves sensitivity)"},
      {"measurement": "Cancer-Related Effects", "setting": "Human [2]", "result": ">Induces apoptosis"},
      {"measurement": "Downregulates or Inhibits", "setting": "Human [2]", "result": ">Bax/Bcl2 pathway → decreased expression of Bcl-2 (prosurvival gene)"},
      {"measurement": "Upregulates", "setting": "Human [2]", "result": ">Bax/Bcl2 pathways → increased expression of Bax (apoptotic gene)"},
      {"measurement": "Cancer-Related Effects", "setting": "Human [3]", "result": ">Inhibits cell proliferation"},
      {"measurement": "Downregulates or Inhibits", "setting": "Human [3]", "result": ">Cell cycle arrest in G0/G1 and G2/M phase >Suppresses ROS production"},
      {"measurement": "Upregulates", "setting": "Human [3]", "result": ">Increase in reduced glutathione and DPPH"},
      {"measurement": "Cancer-Related Effects", "setting": "[4]", "result": ">Regulation of autophagic pathways"},
      {"measurement": "Upregulates", "setting": "[4]", "result": ">Increases levels of LC3-II and Atg5 >Enhances p62 and Fap-1 degradation"},
      {"measurement": "Cancer-Related Effects", "setting": "Human (NSCLC cells)", "result": ">Inhibition of tumor angiogenesis and metastasis"},
      {"measurement": "Downregulates or Inhibits", "setting": "Human (NSCLC cells)", "result": ">VEGF expression"},
      {"measurement": "Upregulates", "setting": "Human (NSCLC cells)", "result": ">Activates p53-SMAR1 positive feedback loop >Decreases endothelial cell migration and network reformation"},
      {"measurement": "Cancer-Related Effects", "setting": "Rats (female)", "result": ">Blocks formation of nitrosomethylurea-induced mammary tumors"},
      {"measurement": "Downregulates or Inhibits", "setting": "Rats (female)", "result": ">Decreased antioxidant enzymes"},
      {"measurement": "Upregulates", "setting": "Rats (female)", "result": ">Increases estradiol, progesterone, CEA and malondialdehyde levels"},
      {"measurement": "Upregulates", "setting": "[5]", "result": ">Increases membrane fluidity"},
      {"measurement": "Cancer-Related Effects", "setting": "Mice [6]", "result": ">Attenuates testosterone-induced prostate growth"},
      {"measurement": "Cancer-Related Effects", "setting": "Mice [7]", "result": ">Ameliorated changes to the histological structure, prostate weight and prostate index (prostate/body weight ratio)"},
      {"measurement": "Downregulates or Inhibits", "setting": "Mice [7]", "result": ">TGF-β1/Smad signaling pathway → expression of E-cadherin, TGFBR2, TGF-β1 and p-Smad2/3 >IGF-1/AKT signaling pathway → expression of IGF-1, IGF-1R, p-AKT and RAGE >Androgen signaling pathway → expression of 5-αreductase type II, AR and PSA"},
      {"measurement": "Upregulates", "setting": "Mice [7]", "result": ">TGF-β1/Smad signaling pathway → expression of N-cadherin, vimentin, fibronectin >TRPV-1-mediated apoptosis"},
      {"measurement": "Kd", "setting": "[8]; Binding (Kd) Insulin, Table 1", "result": 4, "unit": "µM"},
      {"measurement": "binding to insulin (in words)", "setting": "[8]", "result": "bound to insulin"},
      {"measurement": "Kd", "setting": "[8]; binding constant to INS", "result": "~4", "unit": "µM"},
      {"measurement": "Kd", "setting": "[9]", "result": 0.9, "unit": "µM"},
      {"measurement": "binding to the estrogen receptor (in words)", "setting": "[9]; UV spectroscopy", "result": "bound to the estrogen receptor"},
      {"measurement": "binding to the estrogen receptor (in words)", "setting": "[9]; UV spectroscopy, listed as CAP", "result": "bind directly to the estrogen receptor"},
      {"measurement": "Kd", "setting": "[9]; read-out: Kd, ESR1 lower affinity site, UV spectroscopy", "result": 10, "unit": "µM"}
    ]}
  ]
}
